From patent US8846739B2, “TGR5 agonists” (Exelixis Patent Company LLC, priority 2009, dated 2014)
Structures can show the parent of a compound that is named as a salt.

Assays:
h-TGR5 = molecular target: T1, h-TGR5 (Homo sapiens, UniProt Q8TDU6); experiment: TGR5 cAMP Assay using Cisbio cAMP Dynamic 2 htrf assay kit; type: cell-based; details: hTGR5CRE-luc HEK 293 cells
T1 sequence (Q8TDU6 1-330): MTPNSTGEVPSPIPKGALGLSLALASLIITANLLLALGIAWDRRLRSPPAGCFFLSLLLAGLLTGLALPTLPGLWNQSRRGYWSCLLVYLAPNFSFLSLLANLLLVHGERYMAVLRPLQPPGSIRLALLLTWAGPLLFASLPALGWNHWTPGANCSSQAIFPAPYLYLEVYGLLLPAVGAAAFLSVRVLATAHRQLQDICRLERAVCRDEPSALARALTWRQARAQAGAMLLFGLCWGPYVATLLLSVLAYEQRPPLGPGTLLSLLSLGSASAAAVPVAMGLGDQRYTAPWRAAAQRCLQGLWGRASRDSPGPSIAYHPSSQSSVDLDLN

human TGR5 (h-TGR5) = molecular target: T2, human TGR5 (h-TGR5) (Homo sapiens, UniProt Q8TDU6); experiment: TGR5/CRE-Luciferase Assay; type: cell-based; details: HEK 293 hTGR5/CRE-Luc cells, 6 hours incubation, read-out: CRE-Luc Agonist (EC50)
T2 sequence (Q8TDU6 1-330): T1 sequence (Q8TDU6 1-330)
Method in brief: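 HEK 293 CRE-Luciferase cells stably expressing the receptor, plated in DMEM 18-20 h before assay, then exposed to serially diluted compounds (DMEM with 5% DMSO) for 6 h. Luciferase read-out after lysis; EC50 from dose-response.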

EC50 (h-TGR5) [nM] | EC50 (human TGR5 (h-TGR5)) [nM] | SMILES
< 100 | < 100 | COc1cc(C(C)(C)c2cnc(SCc3c(F)cc(S(=O)(=O)N4CC[N+](C)(C)CC4)cc3Cl)n2-c2ccc(F)cc2)ccc1Cl [Compound 11k, 4-{[3-chloro-4-({[5-{1-[4-chloro-3-(methyloxy)phenyl]-1-methylethyl}-1-(4-fluorophenyl)-1H-imidazol-2-yl]thio}methyl)-5-fluorophenyl]sulfonyl}-1,1-dimethylpiperazin-1-ium]
< 100 | < 100 | COc1cc(C(C)(C)c2cnc(SCc3c(F)cc(S(=O)(=O)N(C)CCC[N+](C)(C)C)cc3Cl)n2-c2ccc(F)cc2)ccc1Cl [Compound 12c, 3-(3-chloro-4-((5-(2-(4-chloro-3-methoxyphenyl)propan-2-yl)-1-(4-fluorophenyl)-1H-imidazol-2-ylthio)methyl)-5-fluoro-N-methylphenylsulfonamido)-N,N,N-trimethylpropan-1-aminium 2,2,2-trifluoroacetate]
< 100 | < 100 | COc1cc(C(C)(C)c2cnc(SCc3c(F)cc(S(=O)(=O)N4CCC[C@@H]([N+](C)(C)C)C4)cc3Cl)n2-c2ccc(F)cc2)ccc1F [Compound 11p, (3R)-1-{[3-chloro-5-fluoro-4-({[5-{1-[4-fluoro-3-(methyloxy)phenyl]-1-methylethyl}-1-(4-fluorophenyl)-1H-imidazol-2-yl]thio}methyl)phenyl]sulfonyl}-N,N,N-trimethylpiperidin-3-aminium]
< 100 | < 100 | COc1cc(C(C)(C)c2cnc(SCc3c(F)cc(S(=O)(=O)N(CCC[N+](C)(C)C)[C@@H](C)C(=O)O)cc3F)n2-c2ccc(F)cc2)ccc1Cl [Compound 14b, (S)-3-(N-(1-carboxyethyl)-4-((5-(2-(4-chloro-3-methoxyphenyl)propan-2-yl)-1-(4-fluorophenyl)-1H-imidazol-2-ylthio)methyl)-3,5-difluorophenylsulfonamido)-N,N,N-trimethylpropan-1-aminium 2,2,2-trifluoroacetate]
< 100 | < 100 | COc1cc(C(C)(C)c2cnc(SCc3c(F)cc(S(=O)(=O)N4CCC[C@@H]([N+](C)(C)C)C4)cc3Cl)n2-c2ccc(F)cc2)ccc1Cl [Compound 11g, (3R)-1-{[3-chloro-4-({[5-{1-[4-chloro-3-(methyloxy)phenyl]-1-methylethyl}-1-(4-fluorophenyl)-1H-imidazol-2-yl]thio}methyl)-5-fluorophenyl]sulfonyl}-N,N,N-trimethylpiperidin-3-aminium]
< 100 | < 100 | COc1cc(C(C)(C)c2cnc(SCc3c(F)cc(S(=O)(=O)N4CCC([N+](C)(C)C)CC4)cc3Cl)n2-c2ccc(F)cc2)ccc1Cl [Compound 11f, 1-{[3-chloro-4-({[5-{1-[4-chloro-3-(methyloxy)phenyl]-1-methylethyl}-1-(4-fluorophenyl)-1H-imidazol-2-yl]thio}methyl)-5-fluorophenyl]sulfonyl}-N,N,N-trimethylpiperidin-4-aminium]
< 100 | < 100 | COc1cc(C(C)(C)c2cnc(CCc3c(F)cc(S(=O)(=O)N(C)[C@@H](CCC[N+](C)(C)C)C(=O)O)cc3F)n2-c2ccc(F)cc2)ccc1Cl [Compound 14i, (S)-4-carboxy-4-(4-(2-(5-(2-(4-chloro-3-methoxyphenyl)propan-2-yl)-1-(4-fluorophenyl)-1H-imidazol-2-yl)ethyl)-3,5-difluoro-N-methylphenylsulfonamido)-N,N,N-trimethylbutan-1-aminium chloride]
< 100 | < 100 | COc1cc(C(C)(C)c2cnc(SCc3c(F)cc(S(=O)(=O)N4CC[C@@H](C[N+](C)(C)C)C4)cc3Cl)n2-c2ccc(F)cc2)ccc1F [Compound 11v, [(3S)-1-{[3-chloro-5-fluoro-4-({[5-(1-[4-fluoro-3-(methyloxy)phenyl]-1-methylethyl}-1-(4-fluorophenyl)-1H-imidazol-2-yl]thio}methyl)phenyl]sulfonyl}pyrrolidin-3-yl]-N,N,N-trimethylmethanaminium]
< 100 | < 100 | COc1cc(-n2c(C(C)(C)c3ccc(S(N)(=O)=O)c(Cl)c3)cnc2SCc2c(F)cc(CCC[N+](C)(C)C)cc2F)ccc1F [Compound 19f, 3-(4-((5-(2-(3-chloro-4-sulfamoylphenyl)propan-2-yl)-1-(4-fluoro-3-methoxyphenyl)-1H-imidazol-2-ylthio)methyl)-3,5-difluorophenyl)-N,N,N-trimethylpropan-1-aminium 2,2,2-trifluoroacetate]
< 100 | < 100 | COc1cc(C(C)(C)c2cnc(SCc3c(F)cc(S(=O)(=O)N(CCCC[N+](C)(C)C)[C@H](C)C(=O)O)cc3Cl)n2-c2ccc(F)cc2)ccc1Cl [Compound 14aa, 4-([(1R)-1-carboxyethyl]{[3-chloro-4-({[5-{1-[4-chloro-3-(methyloxy)phenyl]-1-methylethyl}-1-(4-fluorophenyl)-1H-imidazol-2-yl]thio}methyl)-5-fluorophenyl]sulfonyl}amino)-N,N,N-trimethylbutan-1-aminium]
< 100 | < 100 | CCN([C@@H](CCC[N+](C)(C)C)C(=O)O)S(=O)(=O)c1cc(F)c(CSc2ncc(C(C)(C)c3ccc(Cl)c(OC)c3)n2-c2ccc(F)cc2)c(F)c1 [Compound 17a, (S)-4-carboxy-4-(4-((5-(2-(4-chloro-3-methoxyphenyl)propan-2-yl)-1-(4-fluorophenyl)-1H-imidazol-2-ylthio)methyl)-N-ethyl-3,5-difluorophenylsulfonamido)-N,N,N-trimethylbutan-1-aminium 2,2,2-trifluoroacetate]

Second part, the compound before the results:

SMILES | EC50 (h-TGR5) [nM] | EC50 (human TGR5 (h-TGR5)) [nM]
COc1cc(C(C)(C)c2cnc(SCc3c(F)cc(S(=O)(=O)N(C)[C@@H](CCC[N+](C)(C)C)C(=O)[O-])cc3F)n2-c2ccc(F)cc2)ccc1Cl [Compound 17] | < 100 | < 100
COc1cc(C(C)(C)c2cnc(SCc3c(F)cc(C(=O)NCC[N+]45CCN(CC4)CC5)cc3Cl)n2-c2ccc(F)cc2)ccc1Cl [Example 2, 1-(2-(3-chloro-4-((5-(2-(4-chloro-3-methoxyphenyl)propan-2-yl)-1-(4-fluorophenyl)-1H-imidazol-2-ylthio)methyl)-5-fluorobenzamido)ethyl)-4-aza-1-azoniabicyclo-[2.2.2]octane chloride hydrochloride] | < 100 | < 100
COc1cc(C(C)(C)c2cnc(SCc3c(F)cc(C(=O)N[C@H]4CC[N+](C)(C)C4)cc3Cl)n2-c2ccc(F)cc2)ccc1F [Example 2q, (3S)-3-({[3-chloro-5-fluoro-4-({[5-{1-[4-fluoro-3-(methyloxy)phenyl]-1-methylethyl}-1-(4-fluorophenyl)-1H-imidazol-2-yl]thio}methyl)phenyl]carbonyl}amino)-1,1-dimethylpyrrolidinium] | < 100 | < 100
COc1cc(-n2c(C(C)(C)c3ccc(Cl)c(Cl)c3)cnc2SCc2c(F)cc(C(=O)NCC[N+](C)(C)C)cc2Cl)ccc1F [Example 2n, 2-[({3-chloro-4-[({5-[1-(3,4-dichlorophenyl)-1-methylethyl]-1-[4-fluoro-3-(methyloxy)phenyl]-1H-imidazol-2-yl}thio)methyl]-5-fluorophenyl}carbonyl)amino]-N,N,N-trimethylethanaminium] | < 100 | < 100
COc1cc(C(C)(C)c2cnc(SCc3c(F)cc(C(=O)N[C@@H]4CCC[N+](C)(C)C4)cc3Cl)n2-c2ccc(F)cc2)ccc1Cl [Example 2g, (3R)-3-({[3-chloro-4-({[5-{1-[4-chloro-3-(methyloxy)phenyl]-1-methylethyl}-1-(4-fluorophenyl)-1H-imidazol-2-yl]thio}methyl)-5-fluorophenyl]carbonyl}amino)-1,1-dimethylpiperidinium] | < 100 | < 100
COc1cc(C(C)(C)c2cnc(SCc3c(F)cc(C(=O)N[C@H]4CCC[N+](C)(C)C4)cc3Cl)n2-c2ccc(F)cc2)ccc1F [Example 2p, (3S)-3-({[3-chloro-5-fluoro-4-({[5-{1-[4-fluoro-3-(methyloxy)phenyl]-1-methylethyl}-1-(4-fluorophenyl)-1H-imidazol-2-yl]thio}methyl)phenyl]carbonyl}amino)-1,1-dimethylpiperidinium] | < 100 | < 100
COc1cc(C(C)(C)c2cnc(SCc3c(F)cc(S(=O)(=O)N(CC4CC[N+](C)(C)CC4)[C@H](C)C(=O)O)cc3F)n2-c2ccc(F)cc2)ccc1Cl [Compound 15, 2,2,2-trifluoroacetate] | < 100 | < 100
COc1cc(C(C)(C)c2cnc(SCc3c(F)cc(S(=O)(=O)N(C)[C@@H](CCC[N+](C)(C)C)C(=O)O)cc3F)n2-c2ccc(F)cc2)ccc1Cl [Compound 16, (S)-4-carboxy-4-(4-((5-(2-(4-chloro-3-methoxyphenyl)propan-2-yl)-1-(4-fluorophenyl)-1H-imidazol-2-ylthio)methyl)-3,5-difluoro-N-methylphenylsulfonamido)-N,N,N-trimethylbutan-1-aminium 2,2,2-trifluoroacetate] | < 100 | < 100
COc1cc(-n2c(C(C)(C)c3ccc(S(N)(=O)=O)c(Cl)c3)cnc2SCc2c(F)cc(S(=O)(=O)NCCC[N+](C)(C)C)cc2F)ccc1F [Example 6b, 3-{[(4-{[(5-{1-[4-(aminosulfonyl)-3-chlorophenyl]-1-methylethyl}-1-[4-fluoro-3-(methyloxy)phenyl]-1H-imidazol-2-yl)thio]methyl}-3,5-difluorophenyl)sulfonyl]amino}-N,N,N-trimethylpropan-1-aminium] | < 100 | < 100
